# Data as given in ChEMBL document CHEMBL4732170, “Discovery of Small-Molecule Antagonists of the PWWP Domain of NSD2” (J Med Chem, 2021).
# Calls of active or inactive are those of the source. The calls are words filed in the database; no cut-off is given here.
# What was measured:
# [1] = target: DNA mismatch repair protein Msh6 (Homo sapiens) (UniProt P52701); test: Binding affinity to MSH6 PWWP domain (unknown origin) assessed as aggregation temperature at 400 uM by heating at 25 to 85 degC by differential static light scattering method
# [2] = target: T1, Histone-lysine N-methyltransferase NSD3 (Homo sapiens) (UniProt Q9BZ95); test: Binding affinity to NSD3 PWWP1 domain (unknown origin) assessed as aggregation temperature at 400 uM by heating at 25 to 85 degC by differential static light scattering method
# T1 sequence (whole entry): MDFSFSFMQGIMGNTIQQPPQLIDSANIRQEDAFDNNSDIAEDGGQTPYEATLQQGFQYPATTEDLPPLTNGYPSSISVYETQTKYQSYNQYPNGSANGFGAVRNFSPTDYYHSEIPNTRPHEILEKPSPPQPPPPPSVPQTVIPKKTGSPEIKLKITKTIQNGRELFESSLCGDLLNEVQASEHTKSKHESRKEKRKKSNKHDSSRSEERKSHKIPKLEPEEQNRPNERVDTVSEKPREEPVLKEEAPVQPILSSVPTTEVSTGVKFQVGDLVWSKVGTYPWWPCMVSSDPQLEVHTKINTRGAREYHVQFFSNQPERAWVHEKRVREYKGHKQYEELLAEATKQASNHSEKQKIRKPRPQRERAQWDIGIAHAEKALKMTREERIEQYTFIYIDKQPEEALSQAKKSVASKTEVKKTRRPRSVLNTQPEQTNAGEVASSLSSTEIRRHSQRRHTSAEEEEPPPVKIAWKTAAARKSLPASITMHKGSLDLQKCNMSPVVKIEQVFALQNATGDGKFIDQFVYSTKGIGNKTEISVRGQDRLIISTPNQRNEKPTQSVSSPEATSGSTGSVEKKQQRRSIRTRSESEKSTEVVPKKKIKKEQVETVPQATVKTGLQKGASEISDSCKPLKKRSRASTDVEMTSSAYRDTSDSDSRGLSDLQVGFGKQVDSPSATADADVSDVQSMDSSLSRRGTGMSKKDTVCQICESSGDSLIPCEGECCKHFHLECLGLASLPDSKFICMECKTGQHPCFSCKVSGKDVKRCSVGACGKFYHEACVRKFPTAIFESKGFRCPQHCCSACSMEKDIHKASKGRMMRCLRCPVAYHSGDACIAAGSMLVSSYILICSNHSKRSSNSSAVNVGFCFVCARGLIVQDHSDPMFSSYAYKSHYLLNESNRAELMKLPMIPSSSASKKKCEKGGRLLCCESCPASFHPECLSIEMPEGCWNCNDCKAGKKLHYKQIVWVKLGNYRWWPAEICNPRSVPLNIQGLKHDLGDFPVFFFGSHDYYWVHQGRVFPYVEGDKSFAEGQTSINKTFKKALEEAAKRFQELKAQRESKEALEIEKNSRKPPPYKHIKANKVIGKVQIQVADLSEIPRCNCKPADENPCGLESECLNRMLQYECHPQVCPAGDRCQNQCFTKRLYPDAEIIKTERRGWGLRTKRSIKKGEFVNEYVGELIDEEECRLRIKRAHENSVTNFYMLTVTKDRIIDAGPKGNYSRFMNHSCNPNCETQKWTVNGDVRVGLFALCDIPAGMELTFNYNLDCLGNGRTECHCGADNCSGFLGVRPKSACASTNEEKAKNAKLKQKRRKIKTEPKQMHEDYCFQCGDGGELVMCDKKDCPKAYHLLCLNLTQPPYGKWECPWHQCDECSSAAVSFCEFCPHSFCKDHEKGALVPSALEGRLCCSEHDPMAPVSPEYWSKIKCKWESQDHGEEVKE
# DNA mismatch repair protein Msh6 (Homo sapiens), sequence (P52701 whole entry, the tested form may be a part): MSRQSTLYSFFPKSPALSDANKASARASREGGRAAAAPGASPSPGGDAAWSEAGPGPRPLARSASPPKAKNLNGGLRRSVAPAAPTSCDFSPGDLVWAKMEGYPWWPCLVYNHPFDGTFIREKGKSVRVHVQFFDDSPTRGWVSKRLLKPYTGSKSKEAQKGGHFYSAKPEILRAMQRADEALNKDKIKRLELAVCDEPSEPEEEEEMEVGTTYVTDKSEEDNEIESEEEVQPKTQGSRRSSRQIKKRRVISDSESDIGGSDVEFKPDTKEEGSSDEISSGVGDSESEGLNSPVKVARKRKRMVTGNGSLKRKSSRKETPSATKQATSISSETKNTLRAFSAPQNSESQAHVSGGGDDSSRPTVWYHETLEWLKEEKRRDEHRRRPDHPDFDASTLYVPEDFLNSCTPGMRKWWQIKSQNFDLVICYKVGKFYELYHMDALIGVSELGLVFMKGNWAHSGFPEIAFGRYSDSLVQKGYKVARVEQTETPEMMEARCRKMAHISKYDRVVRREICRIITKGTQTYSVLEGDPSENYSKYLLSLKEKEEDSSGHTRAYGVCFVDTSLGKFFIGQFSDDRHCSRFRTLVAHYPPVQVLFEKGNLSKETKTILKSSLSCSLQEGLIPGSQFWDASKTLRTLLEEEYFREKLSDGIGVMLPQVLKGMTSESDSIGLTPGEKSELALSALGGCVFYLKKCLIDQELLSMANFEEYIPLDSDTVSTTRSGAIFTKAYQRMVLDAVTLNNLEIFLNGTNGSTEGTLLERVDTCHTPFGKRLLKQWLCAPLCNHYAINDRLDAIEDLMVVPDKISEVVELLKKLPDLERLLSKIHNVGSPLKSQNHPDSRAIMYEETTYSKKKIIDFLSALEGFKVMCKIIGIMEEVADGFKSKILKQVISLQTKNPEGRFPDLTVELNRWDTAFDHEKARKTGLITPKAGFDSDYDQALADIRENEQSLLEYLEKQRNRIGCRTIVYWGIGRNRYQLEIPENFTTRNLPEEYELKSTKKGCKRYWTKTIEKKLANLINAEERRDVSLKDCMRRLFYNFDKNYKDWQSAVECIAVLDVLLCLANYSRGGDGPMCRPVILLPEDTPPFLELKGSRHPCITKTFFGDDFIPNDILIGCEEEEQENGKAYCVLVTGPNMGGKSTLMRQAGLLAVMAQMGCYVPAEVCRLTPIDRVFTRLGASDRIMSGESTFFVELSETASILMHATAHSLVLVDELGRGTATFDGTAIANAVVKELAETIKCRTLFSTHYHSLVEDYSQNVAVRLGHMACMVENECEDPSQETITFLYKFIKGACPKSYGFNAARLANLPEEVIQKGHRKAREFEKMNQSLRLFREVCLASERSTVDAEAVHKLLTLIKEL
smiles,measurement,setting,value
N#Cc1ccc(C(C(N)=O)N2CCC2c2ccc(Cl)cc2)cc1 (configuration not stated),Activity,[1],inactive
same,Activity,[2],inactive
